Data: paper PMC13070491, “Single-nucleus transcriptomics, pharmacokinetics, and pharmacodynamics of CDK4/6 and mTOR inhibition in a Phase 0/1 trial of recurrent high-grade glioma” (Neuro-Oncology, 2025)
Where “and” joins values, the source holds several entries; their conditions need not be identical. Identical values can stand only once.

Key:
[1] = Plasma pharmacokinetic parameters (LC-MS/MS); conditions: for AUC(0-t): AUClast; for AUC(0-t) / Cmax / Tmax / AUClast / CL/F / T1/2: total everolimus plasma; for half-life: T1/2, total everolimus plasma
Protocol: Pharmacokinetic evaluation was conducted as previously described[8] using a validated liquid chromatography with tandem mass spectrometry (LC-MS/MS) method.[16] […] CSF samples were intraoperatively collected.

[2] = Adverse events related to study treatment (CTCAE); assay type: in vivo, human; conditions: Dose Level 0: ribociclib 400mg + everolimus 2.5mg QD 5 days; CTCAE grade 1
Protocol: Eligibility was determined based on previous clinical records, panel DNA sequencing, and IHC of archival tissue from a previous surgery (Figure 1, Supplementary Figure S2A).

mTOR = conditions: threshold basis for Phase 1 expansion; no reference given; read-out: biochemical IC50; cited from earlier work
[3] = human, plasma, oral, 2.5 mg, mean
[4] = human, plasma, oral, 2.5 mg, median
[5] = human, plasma, oral, 5 mg, mean
[6] = human, plasma, oral, 5 mg, median
[7] = human, plasma, oral, 10 mg, mean
[8] = human, plasma, oral, 10 mg, median
[9] = human, plasma, oral, 50 mg, mean
[10] = human, plasma, oral, 50 mg, median
[11] = human, plasma, oral, 60 mg, mean
[12] = human, plasma, oral, 60 mg, median
[13] = human, plasma, oral, 70 mg, individual patients
[14] = human, plasma, oral, 70 mg, mean
[15] = human, plasma, oral, 70 mg, median
[16] = dose 2.5 mg, individual patients
[17] = dose 10 mg, individual patients
[18] = dose 50 mg, individual patients, listed as everolimus
[19] = dose 60 mg, individual patients
[20] = dose 70 mg, individual patients

Work on `CO[C@H]1C[C@@H]2CC[C@@H](C)[C@@](O)(O2)C(=O)C(=O)N2CCCC[C@H]2C(=O)O[C@H]([C@H](C)C[C@@H]2CC[C@@H](OCCO)[C@H](OC)C2)CC(=O)[C@H](C)/C=C(\C)[C@@H](O)[C@@H](OC)C(=O)[C@H](C)C[C@H](C)/C=C/C=C/C=C/1C` [Everolimus, everolimus] yielded an AUC(0-t) [1, 3] of 0.31 µM·h, an AUC(0-t) [1, 4] of 0.23 µM·h and a Cmax ([1]; human, plasma, oral, 2.5 mg, Cmax, mean) of 33.7 nM. It also gave a half-life [1, 3] of 21.6 h, a half-life [1, 4] of 17.2 h and a Tmax ([1]; human, plasma, oral, 2.5 mg, Tmax, mean) of 1.86 h. For the same compound, the AUC(0-t) ([1]; human, plasma, oral, 5 mg, individual patients) was 0.55 µM·h, the AUC(0-t) [1, 5] was 0.43 µM·h and the AUC(0-t) [1, 6] was 0.5 µM·h. For the same compound, the Cmax ([1]; human, plasma, oral, 5 mg, Cmax, mean) was 34.1 nM, the half-life [1, 5] was 19.9 h and the half-life [1, 6] was 18.8 h. For the same compound, the Tmax ([1]; human, plasma, oral, 5 mg, Tmax, mean) was 2.69 h, the Tmax ([1]; human, plasma, oral, 5 mg, Tmax, median) was 2.03 h and the AUC(0-t) [1, 7] was 0.9 µM·h. For the same compound, the AUC(0-t) [1, 8] was 0.82 µM·h, the Cmax ([1]; human, plasma, oral, 10 mg, Cmax, individual patients) was 80 nM and the half-life ([1]; human, plasma, oral, 10 mg, individual patients) was 22.1 h. For the same compound, the half-life [1, 7] was 21.8 h, the half-life [1, 8] was 21.8 h and the Tmax ([1]; human, plasma, oral, 10 mg, Tmax, mean) was 3.23 h. It also gave a Tmax ([1]; human, plasma, oral, 10 mg, Tmax, median) of 3.92 h, an AUC(0-t) ([1]; human, plasma, oral, 50 mg, individual patients) of 1.35 µM·h and an AUC(0-t) [1, 9] of 1.59 µM·h. It also gave an AUC(0-t) [1, 10] of 1.61 µM·h, a Cmax ([1]; human, plasma, oral, 50 mg, Cmax, individual patients) of 110 nM and a Cmax ([1]; human, plasma, oral, 50 mg, Cmax, mean) of 140 nM. The Cmax ([1]; human, plasma, oral, 50 mg, Cmax, median) was 130 nM, the half-life [1, 9] was 29.3 h and the half-life [1, 10] was 21.3 h. The Tmax ([1]; human, plasma, oral, 50 mg, Tmax, mean) was 1.31 h, the Tmax ([1]; human, plasma, oral, 50 mg, Tmax, median) was 1.12 h and the AUC(0-t) ([1]; human, plasma, oral, 60 mg, individual patients) was 1.93 µM·h. The AUC(0-t) [1, 11] was 1.88 µM·h, the AUC(0-t) [1, 12] was 1.88 µM·h and the Cmax ([1]; human, plasma, oral, 60 mg, Cmax, individual patients) was 190 nM. It also gave a Cmax ([1]; human, plasma, oral, 60 mg, Cmax, mean) of 190 nM, a Cmax ([1]; human, plasma, oral, 60 mg, Cmax, median) of 190 nM and a half-life [1, 11] of 19.7 h. For the same compound, the half-life [1, 12] was 19.7 h, the AUC(0-t) [1, 13] was 1.24 µM·h and the AUC(0-t) [1, 14] was 1.29 µM·h. The AUC(0-t) [1, 15] was 1.27 µM·h, the Cmax ([1]; human, plasma, oral, 70 mg, Cmax, individual patients) was 120 nM and the Cmax ([1]; human, plasma, oral, 70 mg, Cmax, mean) was 120 nM. For the same compound, the Cmax ([1]; human, plasma, oral, 70 mg, Cmax, median) was 120 nM, the half-life [1, 13] was 18.7 h and the half-life [1, 14] was 19.4 h. It also gave a half-life [1, 15] of 19.4 h, a Tmax ([1]; human, plasma, oral, 70 mg, Tmax, mean) of 4.25 h and a Tmax ([1]; human, plasma, oral, 70 mg, Tmax, median) of 1.93 h. The AUClast [1, 16] was 0.41 µM·h and 0.68 µM·h and 0.46 µM·h and 0.32 µM·h and 0.19 µM·h and 0.16 µM·h and 0.14 µM·h, the CL/F [1, 16] was 6.33 L/h and 3.85 L/h and 5.73 L/h and 8.25 L/h and 11.50 L/h and 13.68 L/h and 16.29 L/h and 18.14 L/h and 15.94 L/h and the Tmax [1, 16] was 0.93 h and 1.00 h and 1.88 h and 2.05 h and 1.05 h and 3.97 h and 1.92 h and 1.95 h and 2.02 h. For the same compound, the CL/F ([1]; dose 2.5 mg, mean) was 11.08 L/h, the CL/F ([1]; dose 2.5 mg, median) was 11.50 L/h and the Cmax ([1]; dose 2.5 mg, median) was 30 nM. The Tmax ([1]; dose 2.5 mg, median) was 1.92 h, the AUClast ([1]; dose 5 mg, individual patients) was 0.22 µM·h and the CL/F ([1]; dose 5 mg, individual patients) was 9.45 L/h and 23.36 L/h and 10.39 L/h. For the same compound, the Cmax ([1]; dose 5 mg, individual patients) was 45.2 nM and 21.1 nM, the T1/2 ([1]; dose 5 mg, individual patients) was 28.35 h and 18.84 h and 12.56 h and the Tmax ([1]; dose 5 mg, individual patients) was 1.95 h and 4.10 h. For the same compound, the CL/F ([1]; dose 5 mg, mean) was 14.40 L/h, the CL/F ([1]; dose 5 mg, median) was 10.39 L/h and the Cmax ([1]; dose 5 mg, median) was 36.2 nM. The AUClast [1, 17] was 0.49 µM·h and 0.63 µM·h and 1.02 µM·h and 1.48 µM·h, the CL/F [1, 17] was 21.35 L/h and 16.51 L/h and 10.28 L/h and 7.07 L/h and the Cmax [1, 17] was 120 nM. The T1/2 [1, 17] was 21.52 h, the Tmax [1, 17] was 4.03 h and 1.05 h and 3.83 h and 4.00 h and the CL/F ([1]; dose 10 mg, mean) was 13.80 L/h. For the same compound, the Cmax ([1]; dose 10 mg, mean) was 90 nM, the CL/F ([1]; dose 10 mg, median) was 13.40 L/h and the Cmax ([1]; dose 10 mg, median) was 84.6 nM. For the same compound, the Cmax ([1]; dose 50 mg, individual patients) was 130 nM, the AUClast [1, 18] was 1.87 µM·h and 1.42 µM·h and 1.72 µM·h and the CL/F [1, 18] was 21.38 L/h and 14.80 L/h and 15.39 L/h and 21.73 L/h and 8.55 L/h. For the same compound, the Cmax [1, 18] was 130 nM and 160 nM and 170 nM, the Tmax [1, 18] was 1.87 h and 1.78 h and 0.83 h and 0.95 h and the CL/F ([1]; dose 50 mg, mean) was 16.37 L/h. For the same compound, the CL/F ([1]; dose 50 mg, median) was 15.39 L/h, the AUClast [1, 19] was 1.83 µM·h and the CL/F [1, 19] was 23.69 L/h and 16.85 L/h. The T1/2 [1, 19] was 12.25 h and 27.10 h, the Tmax [1, 19] was 1.00 h and the CL/F ([1]; dose 60 mg, mean) was 20.27 L/h. It also gave a Tmax ([1]; dose 60 mg, mean) of 1.00 h, a CL/F ([1]; dose 60 mg, median) of 20.27 L/h and a Tmax ([1]; dose 60 mg, median) of 1.00 h. The AUClast [1, 20] was 1.36 µM·h, the CL/F [1, 20] was 35.41 L/h and 33.84 L/h and the Cmax [1, 20] was 90 nM. The T1/2 [1, 20] was 20.18 h, the Tmax [1, 20] was 9.75 h and 1.07 h and the CL/F ([1]; dose 70 mg, mean) was 34.62 L/h. The CL/F ([1]; dose 70 mg, median) was 34.62 L/h, the “Stomatitis, No. Patients Affected” value [2] was 1 and the IC50 (mTOR) was 2 nM.
